Assay results from US20260232846A1, “FLUORESCENT PROBE COMPOUND AND COMPOSITE COMPRISING SAME” (KOREA RESEARCH INSTITUTE OF BIOSCIENCE AND BIOTECHNOLOGY, priority 2022, published 2026).

Key:
MC3T3-E1 cells [1] = assay: Dephosphorylation of probe compounds on cell-cultured CDHA (fluorescence images, radiant efficiency); assay type: cell-based; settings: CDHA specimen cultured with cells, treated with probe; diffused ALP hydrolysis increased over time in MC3T3-E1 cells
Method: In order to confirm the dephosphorylation of the fluorescent probe compounds by ALP or pH change on CDHA, three bare CDHA specimens and three CDHA specimens cultured with MC3T3-E1 cells and Raw264.7 cells were prepared, the results of examining fluorescence images obtained by treating, the three specimens, one of which was treated with the bone-forming activity marker-sensitive fluorescent probe compound of Synthetic Example 1, another of which was treated with the bone-resorbing activity marker-sensitive fluorescent probe compound of Synthetic Example 2, and the remaining one of which was treated with both the bone-forming activity marker-sensitive fluorescent probe compound and the bone-resorbing activity marker-sensitive fluorescent probe compound, were illustrated in FIG. 11, and the results of measuring fluorescence efficiency (radiant efficiency) in each of six specimens were illustrated in FIGS. 12A and 12B.

MC3T3-E1 cells [2] = test system: MC3T3-E1 cells

Row | Compound | fluorescence signal (radiant efficiency) (MC3T3-E1 cells [1]) | cell proliferation (%) (Raw264.7 cells) | cell proliferation (%) (MC3T3-E1 cells [2])
1 | CC1(C)C(/C=C/C2=C3Oc4cc(OCc5ccc(OP(=O)(O)O)cc5)ccc4C=C3CCC2)=[N+](CCCCC(=O)NCCCC(O)(P(=O)(O)O)P(=O)(O)O)c2ccccc21 [compound 1-7] | high fluorescence signal |  | 
2 | calcium deficient hydroxyapatite [CDHA] |  | ~170% | ~170%
